# Results taken from patent US20230135093A1, “TRIAZOLYL DERIVATIVES AS GABA A ALPHA5 PAM” (Hoffmann-La Roche Inc., priority 2020, published 2023).
# Assays:
# h-GABA-A α5β3γ2 [1] = target: T1, h-GABA-A α5β3γ2 (Homo sapiens, UniProt P18507+P31644); assay: Two-electrode voltage clamp electrophysiology in Xenopus oocytes expressing GABAA receptors (modulation of GABA EC20 current); format: cell-based; details: Table 1; for Efficacy (GABA) %: % modulation of GABA EC20 = 100*(Fold increase-1); for Fold increase h-GABA-A α5β3γ2 oocyte: Xenopus oocytes, GABA EC20, test compound at approximatively 30 fold its Ki
# T1 construct: expressed in transfected cells; host or cells: Xenopus laevis oocytes, micro-injected with subunit RNA
# Summary of the method: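 GABA EC20 currents in human α5β3γ2-expressing Xenopus oocytes, voltage-clamped at −80 mV (room temperature, pH 7.4), measured with and without compound at ~30× Ki applied 0.5 min into the second GABA pulse. % modulation = 100×(fold increase−1), taken from the extremum of the current ratio trace; at least 3 oocytes per concentration.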
# h-GABA-A α5β3γ2 [2] = target: T1, h-GABA-A α5β3γ2; assay: [3H]flumazenil competition binding assay on membranes of HEK293 cells expressing GABAA receptors; details: Table 1; displacement of [3H]-Flumazenil (0.5 nM), HEK293 cells expressing human receptors, means of two determinations
# Summary of the method: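 Competition for [3H]flumazenil (0.5 nM for α5 subunits) was measured at equilibrium (1 h, 4 °C, Krebs-tris buffer pH 7.5) on transiently transfected HEK293 membranes bearing human α5β3γ2 receptors, with 10^−5 M diazepam defining nonspecific binding. Ki values were derived from filtration and scintillation counting, averaged over duplicates.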
Structure (SMILES),Efficacy (GABA) % (h-GABA-A α5β3γ2 [1]),Fold increase h-GABA-A α5β3γ2 oocyte (h-GABA-A α5β3γ2 [1]),Ki (h-GABA-A α5β3γ2 [2])
"Cn1nnc(-c2ccc(C(F)(F)F)cc2F)c1Cn1ncc(N2CC(OC(F)F)C2)cc1=O [Example 71, 5-[3-(difluoromethoxy)azetidin-1-yl]-2-[[5-[2-fluoro-4-(trifluoromethyl)phenyl]-3-methyl-triazol-4-yl]methyl]pyridazin-3-one]",75%,1.75,12.2 nM
"Cn1nnc(-c2ccc(C(F)(F)F)cc2F)c1Cn1ncc(N2CC3(CCCO3)C2)cc1=O [Example 75, 2-[[5-[2-fluoro-4-(trifluoromethyl)phenyl]-3-methyl-triazol-4-yl]methyl]-5-(5-oxa-2-azaspiro[3.4]octan-2-yl)pyridazin-3-one]",73%,1.73,23 nM
"Cn1nnc(-c2ccc(C(F)(F)F)cc2F)c1Cn1ncc(N2CC(OCC(F)F)C2)cc1=O [Example 76, 5-[3-(2,2-difluoroethoxy)azetidin-1-yl]-2-[[5-[2-fluoro-4-(trifluoromethyl)phenyl]-3-methyl-triazol-4-yl]methyl]pyridazin-3-one]",115%,2.15,11.6 nM
"Cn1nnc(-c2ccc(C(F)(F)F)cc2F)c1Cn1ncc(N2CC(OC3CCC3)C2)cc1=O [Example 77, 5-[3-(cyclo-butoxy)azetidin-1-yl]-2-[[5-[2-fluoro-4-(trifluoro-methyl)phenyl]-3-methyl-triazol-4-yl]methyl]pyridazin-3-one]",66%,1.66,18.4 nM
"Cn1nnc(-c2ccc(Cl)cc2F)c1Cn1ncc(N2CC(Oc3ccncn3)C2)cc1=O [Example 78, 2-[[5-(4-chloro-2-fluoro-phenyl)-3-methyl-triazol-4-yl]methyl]-5-(3-pyrimidin-4-yloxyazetidin-1-yl)pyridazin-3-one]",106%,2.06,11.2 nM
"COc1ncc(-c2cnn(Cc3c(-c4ccc(C)nc4)nnn3C)c(=O)c2)cc1Cl [Example 82, 5-(5-chloro-6-methoxy-3-pyridyl)-2-((3-methyl-5-(6-methyl-3-pyridyl)triazol-4-yl)methyl)pyridazin-3-one]",236%,3.36,31 nM
"Cn1nnc(-c2ccc(C(F)(F)F)cc2F)c1Cn1ncc(N2CC(Oc3ccccn3)C2)cc1=O [Example 84, 2-[[5-[2-fluoro-4-(trifluoromethyl)phenyl]-3-methyl-triazol-4-yl]methyl]-5-[3-(2-pyridyloxy)azetidin-1-yl]pyridazin-3-one]",73%,1.73,10.2 nM
"CCn1nnc(-c2ccc(Cl)cc2F)c1Cn1ncc(N2CC(OC3CCC3)C2)cc1=O [Example 85, 2-[[5-(4-chloro-2-fluoro-phenyl)-3-ethyl-triazol-4-yl]methyl]-5-[3-(cyclobutoxy)azetidin-1-yl]pyridazin-3-one]",143%,2.43,18.5 nM
"CCn1nnc(-c2ccc(Cl)cc2F)c1Cn1ncc(N2CC(OCC(F)F)C2)cc1=O [Example 86, 2-[[5-(4-chloro-2-fluoro-phenyl)-3-ethyl-triazol-4-yl]methyl]-5-[3-(2,2-difluoro-ethoxy)azetidin-1-yl]pyridazin-3-one]",136%,2.36,10.8 nM
"CCn1nnc(-c2ccc(Cl)cc2F)c1Cn1ncc(N2CC(OCC(F)(F)F)C2)cc1=O [Example 87, 2-[[5-(4-chloro-2-fluoro-phenyl)-3-ethyl-triazol-4-yl]methyl]-5-[3-(2,2,2-trifluoro-ethoxy)azetidin-1-yl]pyridazin-3-one]",115%,2.15,12.5 nM
"CCOC1CN(c2cnn(Cc3c(-c4ccc(Cl)cc4F)nnn3CC)c(=O)c2)C1 [Example 91, 2-[[5-(4-chloro-2-fluoro-phenyl)-3-ethyl-triazol-4-yl]methyl]-5-(3-ethoxyazetidin-1-yl)pyridazin-3-one]",128%,2.28,18.2 nM
"Cn1nnc(-c2ccc(C(F)(F)F)cc2F)c1Cn1ncc(N2CC(Oc3ccc(Cl)nc3)C2)cc1=O [Example 93, 5-[3-[(6-chloro-3-pyridyl)oxy]azetidin-1-yl]-2-[[5-[2-fluoro-4-(trifluoromethyl)phenyl]-3-methyl-triazol-4-yl]methyl]pyridazin-3-one]",79%,1.79,9.4 nM

# The remaining molecules from weak to strong by Ki (h-GABA-A α5β3γ2 [2]), led by results:
Efficacy (GABA) % (h-GABA-A α5β3γ2 [1]),Fold increase h-GABA-A α5β3γ2 oocyte (h-GABA-A α5β3γ2 [1]),Ki (h-GABA-A α5β3γ2 [2]),Structure (SMILES)
71%,1.71,25 nM,"CC(C)OC1CN(c2cnn(Cc3c(-c4ccc(C(F)(F)F)cc4F)nnn3C)c(=O)c2)C1 [Example 70, 2-[[5-[2-fluoro-4-(trifluoromethyl)phenyl]-3-methyl-triazol-4-yl]methyl]-5-(3-isopropoxyazetidin-1-yl)pyridazin-3-one]"
110%,2.1,19.9 nM,"COc1cc(-c2cnn(Cc3c(-c4ccc(C)nc4)nnn3C)c(=O)c2)ccn1 [Example 81, 5-(2-methoxy-4-pyridyl)-2-((3-methyl-5-(6-methyl-3-pyridyl)triazol-4-yl)methyl)pyridazin-3-one]"
70%,1.7,19.4 nM,"CCOC1CN(c2cnn(Cc3c(-c4ccc(C(F)(F)F)cc4F)nnn3C)c(=O)c2)C1 [Example 72, 5-(3-ethoxyazetidin-1-yl)-2-[[5-[2-fluoro-4-(trifluoromethyl)phenyl]-3-methyl-triazol-4-yl]methyl]pyridazin-3-one]"
96%,1.96,19.4 nM,"CCn1nnc(-c2ccc(Cl)cc2F)c1Cn1ncc(N2CC(OC(C)C)C2)cc1=O [Example 90, 2-[[5-(4-chloro-2-fluoro-phenyl)-3-ethyl-triazol-4-yl]methyl]-5-(3-isopropoxyazetidin-1-yl)pyridazin-3-one]"
72%,1.72,16.8 nM,"Cn1nnc(-c2ccc(Cl)cc2F)c1Cn1ncc(N2CC(Oc3ccc(Cl)cn3)C2)cc1=O [Example 80, 2-[[5-(4-chloro-2-fluoro-phenyl)-3-methyl-triazol-4-yl]methyl]-5-[3-[(5-chloro-2-pyridyl)oxy]azetidin-1-yl]pyridazin-3-one]"
108%,2.08,14.7 nM,"Cn1nnc(-c2ccc(C(F)(F)F)cc2F)c1Cn1ncc(N2CC(Oc3cccnn3)C2)cc1=O [Example 83, 2-[[5-[2-fluoro-4-(trifluoromethyl)phenyl]-3-methyl-triazol-4-yl]methyl]-5-(3-pyridazin-3-yloxyazetidin-1-yl)pyridazin-3-one]"
86%,1.86,11.8 nM,"Cn1nnc(-c2ccc(C(F)(F)F)cc2F)c1Cn1ncc(N2CC(OCC(F)(F)F)C2)cc1=O [Example 74, 2-[[5-[2-fluoro-4-(trifluoromethyl)phenyl]-3-methyl-triazol-4-yl]methyl]-5-[3-(2,2,2-trifluoro-ethoxy)azetidin-1-yl]pyridazin-3-one]"
88%,1.88,11 nM,"Cn1nnc(-c2ccc(Cl)cc2F)c1Cn1ncc(N2CC(Oc3cccnn3)C2)cc1=O [Example 79, 2-((5-(4-chloro-2-fluoro-phenyl)-3-methyl-triazol-4-yl)methyl)-5-(3-pyridazin-3-yloxyazetidin-1-yl)pyridazin-3-one]"
76%,1.76,9.3 nM,"Cn1nnc(-c2ccc(C(F)(F)F)cc2F)c1Cn1ncc(N2CC(Oc3cnccn3)C2)cc1=O [Example 89, 2-[[5-[2-fluoro-4-(trifluoromethyl)phenyl]-3-methyl-triazol-4-yl]methyl]-5-(3-pyrazin-2-yloxyazetidin-1-yl)pyridazin-3-one]"
90%,1.9,7.7 nM,"Cn1nnc(-c2ccc(Cl)cc2F)c1Cn1ncc(N2CC(Oc3cnccn3)C2)cc1=O [Example 73, 2-[[5-(4-chloro-2-fluoro-phenyl)-3-methyl-triazol-4-yl]methyl]-5-(3-pyrazin-2-yloxyazetidin-1-yl)pyridazin-3-one]"
126%,2.26,7 nM,"CCn1nnc(-c2ccc(Cl)cc2F)c1Cn1ncc(N2CC(OC(F)F)C2)cc1=O [Example 88, 2-[[5-(4-chloro-2-fluoro-phenyl)-3-ethyl-triazol-4-yl]methyl]-5-[3-(difluoromethoxy)azetidin-1-yl]pyridazin-3-one]"
159%,2.59,5.6 nM,"CCn1nnc(-c2ccc(Cl)cc2F)c1Cn1ncc(N2CCN(C(C)C)[C@@H](C)C2)cc1=O [Example 92, 2-[[5-(4-chloro-2-fluoro-phenyl)-3-ethyl-triazol-4-yl]methyl]-5-[(3S)-4-isopropyl-3-methyl-piperazin-1-yl]pyridazin-3-one]"
